The structures appear in SMILES notation. A value given as a limit tells only on which side of the number the result lay.

This assay addresses T1, human estrogen receptor-alpha (Homo sapiens, UniProt P03372).
T1 construct: made in house; host or cells: yeast strain BJ2168, copper-induced
T1 sequence (P03372 1-595): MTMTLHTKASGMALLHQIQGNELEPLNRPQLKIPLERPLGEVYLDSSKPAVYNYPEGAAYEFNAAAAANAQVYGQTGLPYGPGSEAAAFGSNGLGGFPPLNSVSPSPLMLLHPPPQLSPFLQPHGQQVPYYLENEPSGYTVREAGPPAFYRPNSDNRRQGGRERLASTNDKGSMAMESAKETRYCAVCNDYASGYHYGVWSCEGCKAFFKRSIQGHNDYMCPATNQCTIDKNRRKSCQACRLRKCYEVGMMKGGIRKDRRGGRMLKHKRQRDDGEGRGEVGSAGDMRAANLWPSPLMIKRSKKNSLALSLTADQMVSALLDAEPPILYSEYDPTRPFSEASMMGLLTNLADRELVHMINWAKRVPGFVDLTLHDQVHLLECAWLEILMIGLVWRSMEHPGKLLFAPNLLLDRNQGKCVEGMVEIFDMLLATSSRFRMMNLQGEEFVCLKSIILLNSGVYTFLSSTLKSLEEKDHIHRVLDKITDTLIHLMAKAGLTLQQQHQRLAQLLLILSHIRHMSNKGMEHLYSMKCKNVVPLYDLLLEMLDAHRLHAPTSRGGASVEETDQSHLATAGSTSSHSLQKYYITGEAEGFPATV
In words: soluble estrogen receptor-alpha (ER-α) binding assay, [3H]-estradiol competition. The following applies: 2-3 nM [3H]-estradiol, 4 °C for 18 hours; Cheng-Prusoff. The text has this:
For soluble estrogen receptor-alpha (ER-α) binding assays, [^3H]- Estradiol (120-140 Ci/mmol) was purchased from New England Nuclear (Boston, MA), 17-beta estradiol was purchased from Sigma Chemical Co. (St. Louis, MO), CHAPS and DTT were purchased from Boehringer Mannheim GmbH (W. Germany) and all other reagents were purchased from Sigma.
The human estrogen receptor-alpha cDNA was cloned into a yeast vector termed pYhERα and used to transform wild type yeast strain BJ2168 following the protocol outlined by Pham, T.A., Hwung Y.P., Santiso-Mere, D., McDonnell D.P., O'Malley, B.W., Ligand-Dependent and Independent Function of the Transactivation Regions of the Human Estrogen Receptor in Yeast, Mol. Endocrinol. 1992, 6, 1043-1050, hereby incorporated by reference. The yeast was induced with copper for 16 hours after which the cells were harvested, washed and the receptor extract prepared in cold buffer via a Bead Beater (BioSpec Products , Bartlesville, OK). Aliquots of the receptor typically contained 5-10 mg/ml of total protein and were stored at -80 °C until used. Estradiol or other competing compounds were prepared as 5 mM stock solutions in either 100% ethanol or DMSO and serial dilutions were carried out in 1:1 DMSO-ethanol. The assay buffer consisted of the following: 300 mM potassium chloride, 10 mM Trizma Base, 2 mM DTT and 5 mM CHAPS , pH=7.5 at room temperature.
Receptor assays were performed in a 250 µL final volume containing from 5-10 µg of extract protein, plus 2-3 nM [^3H]-estradiol and varying concentrations of competing ligand (0 to 10,000 nM). Assays were set up using a 96-well minitube system and incubations were carried out at 4 °C for 18 hours. Equilibrium under these conditions of buffer and temperature was achieved by 6-8 hours. Nonspecific binding was defined as that binding remaining in the presence of 1000 nM unlabeled estradiol. At the end of the incubation period, 200 µL of 6.25% hydroxyapatite was added in wash buffer (binding buffer in the absence of DTT but containing 1 mM CHAPS). Specific ligand binding to receptor was determined by a hydroxyapatite-binding assay according to the protocol outlined by Wecksler, W.R., Norman, A.W, An Hydroxylapatite Batch Assay for the Quantitation of 1α, 25-Dihydroxyvitamin D3-Receptor Complexes. Anal. Biochem. 1979, 92, 314-323, hereby incorporated by reference. Hydroxyapatite absorbs the receptor-ligand complex, allowing for the separation of bound from free radiolabeled ligand. The mixture was vortexed, incubated for 10 minutes at 4 °C, centrifuged, and the supernatant was removed. The hydroxyapatite pellet was washed twice more with the wash buffer. The amount of receptor-ligand complex was determined by liquid scintillation counting of the hydroxyapatite pellet after the addition of […] EcoScint A scintillation cocktail from National Diagnostics (Atlanta, GA.).
After correcting for nonspecific binding, IC50 values were determined. […] The IC50 values were determined graphically from a log-logit plot of the data. […] Standards are included in each assay and resulting Ki values are determined by use of a modified Cheng-Prusoff equation and used to calculate Ki values for "unknown analogs", DeBlasi, A., O'Reilly, K., Motulsky, H.J., Calculating Receptor Number from Binding Experiments Using Same Compound As Radioligand and Competitor, TIPS 1989, 10, 227-229, hereby incorporated by reference.
Usually Ki stands for the dissociation constant of the complex between target and ligand, obtained from inhibition or displacement. The compound `CNc1ccc(C(c2ccc(NC)cc2)c2cc([N+](=O)[O-])ccc2Cl)cc1` [Example 23, 4',4" bis(methylamino)-2-chloro-5-nitrotriphenylmethane] displayed a Ki of over 10000 nM. The figure for `CNc1ccc(C(c2ccc(NC)cc2)c2cc(Cl)ccc2Cl)cc1` [Example 27, 4',4" bis(methylamino)-2,5-dichlorotriphenylmethane] is over 10000 nM. The figure for `O=[N+]([O-])c1ccc(Cl)c(C(c2ccc(NCc3ccccc3)cc2)c2ccc(NCc3ccccc3)cc2)c1` [Example 36, 4',4" bis(N-benzylamino)-2-chloro-5-nitrotriphenylmethane] is over 10000 nM. The result for `CNc1ccc(C(c2ccc(N(C)C)cc2)c2cc([N+](=O)[O-])ccc2Cl)cc1` (stereo not drawn) [Example 39, 4'-dimethylamino-4"-methylamino-2-chloro-5-nitrotriphenylmethane] reads over 10000 nM.

In turn, `CN(C)c1ccc(C(c2ccc(N(C)CCO)cc2)c2cc([N+](=O)[O-])ccc2Cl)cc1` (stereo not drawn) [Example 42, 4'-dimethylamino-4"-(N-methyl-N-(2-hydroxyethyl)amino)-2-chloro-5-nitrotriphenylmethane] had a Ki of over 10000 nM. For `CNc1ccc(C(c2ccc(N(C)CCOC(C)=O)cc2)c2cc([N+](=O)[O-])ccc2Cl)cc1` (stereo not drawn) [Example 49, 4'-methylamino-4"-(N-(2-acetoxyethyl)-N-methylamino)-2-chloro-5-nitrotriphenylmethane], the Ki was over 10000 nM. The result for `CC(=O)OCCN(C)c1ccc(C(c2ccc(N(C)C)cc2)c2cc([N+](=O)[O-])ccc2Cl)cc1` (stereo not drawn) [Example 51, 4'-dimethylamino-4"-(N-methyl-N-(2-acetoxyethyl)amino)-2-chloro-5-nitrotriphenylmethane] reads over 10000 nM; that for `CN(C)c1ccc(C(Oc2ccccc2)c2cc([N+](=O)[O-])ccc2Cl)cc1` (stereo not drawn) [Example 52, phenyl-[(4'-dimethylaminophenyl)-(2-chloro-5-nitrophenyl)methyl] ether], over 10000 nM. The result for `CN(C)c1ccc(C(Sc2ccccc2)c2cc([N+](=O)[O-])ccc2Cl)cc1` (stereo not drawn) [Example 54, phenyl-[(4'-dimethylaminophenyl)-(2-chloro-5-nitrophenyl)methyl]thioether] reads over 10000 nM.

Values taken from EP1100483B1, “GLUCOCORTICOID-SELECTIVE ANTI-INFLAMMATORY AGENTS” (Abbott Laboratories, priority 1998, dated 2000).
